In a melting point compilation (Tetko et al.; mined from patent text by program, amines drawn as free bases though some values may be those of a salt):

In the case of COc1cc(-c2ccccc2)c([N+](=O)[O-])cc1OC, the melting point is reported as 113 to 115 °C. Cc1cnc(NCCc2ccccn2)c(=O)n1NC(=O)CCc1cccc(Cl)c1 gave a melting point of 201 to 207 °C. In the case of COC1CSC2=C(SC1)C(OC(=O)N1CCN(C)CC1)N(c1ccc(Cl)cn1)C2=O (stereo not given), the melting point is reported as 197 °C. CCC(=O)OC1CC2(CCN(CCCC(=O)c3ccc(F)cc3)C2)c2ccc(C)cc21 (stereo not given) showed a melting point of 153 to 155 °C. With COc1ccccc1SCC1SCCN1C(=O)CCl (stereo not given) the melting point was 127 to 129 °C. COc1ccnc(Nc2nc(-c3cc(-c4ccccc4)no3)cs2)c1 showed a melting point of 177 to 179 °C. For CCN(Cc1ccccc1)c1ccc(C2OC(=O)c3cc(N(C)C)ccc32)cc1 (stereo not given), the melting point was 123 to 125 °C. In the case of CC(C)c1ccc(N(Cc2ccc(N(C)C)cc2)C(=O)C2CCCc3cc(OCCO)ccc32)cc1 (stereo not given), the melting point is reported as 141 °C. In the case of O=[N+]([O-])c1ccc(F)c(Br)c1F, the melting point is reported as 50 to 51.5 °C. With O=C1CCS(=O)(=O)C(CC(=O)c2ccccc2)C1 (stereo not given) the melting point was 158 to 159 °C. Molecule CCc1cc(C(C)=O)c(O)cc1OCCCCCNC(C)=O has a melting point of 115 to 116 °C. Molecule Cc1cc(CC(=O)O)ccc1NC(=O)Nc1ccccc1C(F)(F)F has a melting point of 262 to 263 °C. Work on COc1ccc(C(=O)c2ccc3cc(C(=O)c4ccc(OC)cc4)ccc3c2)cc1 yielded a melting point of 251 °C. Cc1cc(-c2ccc(F)cc2F)n(-c2ccc(S(N)(=O)=O)cc2)c1 showed a melting point of 170 to 172 °C. N#CCNC(=O)C1(NC(=O)c2ccc(C3CCN(C4CCCC4)CC3)cc2)CCCCC1 gave a melting point of 233 to 234 °C. With CCOC(=O)C=CC=Cc1cccc2cncn12 the melting point was 101 to 103 °C. With S=C1NCCCN1c1ccccc1 the melting point was 211 to 212 °C. For COc1ccc(CNc2nc(-c3ccco3)c3ncn(Cc4ccc(OC)cc4)c3n2)cc1, the melting point was 153 to 154 °C. For O=C1c2cccc(O)c2C(=O)c2sc(-c3ccccc3)nc21, the melting point was 264 °C. For COc1ccc(S(=O)(=O)NCC(O)(Cn2cncn2)c2ccc(Cl)cc2Cl)cc1 (stereo not given), the melting point was 56 to 66 °C. Cc1ccc(C(=O)NC/C=C/c2ccccc2)cc1 gave a melting point of 134 °C. Work on C[C@@H]1CN(CC(=O)Nc2ccccc2Cl)C[C@H](C)N1c1ncnc2c1ncn2C yielded a melting point of 221 to 222 °C. Cc1ccc(C(=O)C=Cc2cc(O)c(O)c([N+](=O)[O-])c2)cc1 showed a melting point of 184 to 186 °C. Work on COc1ccc(-c2nc3cccnc3n2CC(=O)N2CCCCC2)cc1 yielded a melting point of 153 to 155 °C. In the case of NC(=O)c1ccn2c1CSC2c1cccnc1 (single isomer, unassigned; (+)), the melting point is reported as 210 °C. Molecule CC(=Cc1ccc(C(=O)O)cc1)c1cc2c(cc1C)C(C)(C)CCC2(C)C has a melting point of 91 to 92 °C. With COC(=S)N(C)C[C@@H]1CN(c2cc(F)c(N3CC(=O)N(C)C3)c(F)c2)C(=O)O1 the melting point was 130 °C. For CCCc1ccccc1OCC(O)COc1ccc2oc(C(=O)O)cc(=O)c2c1 (stereo not given), the melting point was 164 to 166 °C. With Cc1ccc(C(=O)NCC(C)O)cc1C (stereo not given) the melting point was 77 to 78 °C. Work on CCCCOC(=O)CS(=O)C(C)c1ccc(-c2ccccc2F)cc1 (stereo not given) yielded a melting point of 72 to 74 °C. Molecule CCOC(=O)COc1cc(C(C)C)c(NC(=O)CN2CCN(CCSc3nc4ccccc4o3)CC2)c(C(C)C)c1 has a melting point of 118 to 120 °C. Work on O=[N+]([O-])c1ccc2oc(CO)cc2c1 yielded a melting point of 115 to 116 °C. In the case of C=CCn1c(=O)c2c(nc(/C=C/c3cc(OC)c(OC(C)=O)c(OC)c3)n2C)n(CC=C)c1=O, the melting point is reported as 220 to 221 °C. With COc1ccccc1CN1CCC(=O)C(C2c3ccccc3C=Cc3ccccc32)C1 (stereo not given) the melting point was 113 to 114 °C. COC(=O)c1cccc(C(=O)Cc2cccc(Br)n2)c1 gave a melting point of 84 to 86 °C. COc1ccc(C(F)(F)F)cc1-c1cccn2nc(Nc3ccc4c(c3)CCN(C(=O)OC(C)(C)C)C4)nc12 gave a melting point of 86 to 90 °C. With CC(=O)c1c(Nc2ccccc2)n[nH]c1C the melting point was 246 to 247 °C. COc1ccc2c(c1Cl)S(=O)(=O)c1ccccc1N2C gave a melting point of 244 °C. With O=C(O)C1c2ccccc2CSc2ccc(Br)cc21 (stereo not given) the melting point was 185 to 186 °C. Molecule C#Cc1c[nH]c2ncnc(N3CCCCC3)c12 has a melting point of 179 to 181 °C. For Cc1cc2c(c3c1NC(=O)CC3)O[C@@H](CN)[C@@H]2CO (racemic), the melting point was over 300 °C. For COc1ccc(Br)cc1C(C)(C)CCl, the melting point was 82 to 84 °C. Work on Nc1ccc(S(=O)(=O)C[N+](=O)[O-])cc1 yielded a melting point of 132 to 133 °C. O=C(O)C1CCc2ccc(O)cc2C1 (stereo not given) gave a melting point of 170 to 171 °C. Molecule COC(=O)c1ccc(CCCOCCCCCNCC(O)c2cc(Cl)c(N)c(Cl)c2)o1 (stereo not given) has a melting point of 58 to 59 °C. O=C(O)c1cc(S(=O)(=O)N2CCC(CCl)CC2)ccc1Cl gave a melting point of 175 to 177 °C. In the case of NCCCc1cc(Nc2nc(-c3ccccc3)nc3ccccc23)[nH]n1, the melting point is reported as 205 to 207 °C. For COc1ccc2cc(Br)ccc2c1C(=O)N(C)C, the melting point was 124 to 125 °C. N#CC1CN(C(=O)[C@H](NC(=O)c2c[nH]c3ncc(-c4ccccc4)nc23)C2CC2)C1 gave a melting point of 200 to 202 °C. With CCCCOCCOc1ccc(-c2ccc3c(c2)C=C(C(=O)Nc2ccc(C(O)c4ccccn4)cc2)CCS3(=O)=O)cc1 (stereo not given) the melting point was 173 to 174 °C. O=Cc1cc(O)c(O)c(C=O)c1CCC(=O)O showed a melting point of 160 to 162 °C. Cc1ccccc1C=C1CCc2c1oc1ccc(C#N)cc1c2=O showed a melting point of 260 to 262 °C. For CCCn1c(CCOC)nc2c(N)nc3cc(OC4CCN(S(C)(=O)=O)CC4)ccc3c21, the melting point was 224 to 226 °C. CCOC(=O)C1=C(C)Nc2nc(N3CCOCC3)nc(N3CCOCC3)c2C1c1cccc([N+](=O)[O-])c1 (stereo not given) showed a melting point of 190 °C. Work on COC(=O)c1nc(N(C)Cc2ccccc2)ccc1Oc1nc(OC)cc(OC)n1 yielded a melting point of 73 to 75 °C. CCC1(CC)c2ccccc2-c2ccccc21 showed a melting point of 29 to 30 °C. O=c1[nH]c2cc(Cl)c(Cl)cc2n2ccnc12 showed a melting point of over 300 °C. For COc1cc(C(=O)O)ccc1Cn1nnc2ccc(NC(=O)OC3CCCC3)cc21, the melting point was 237 to 239 °C. With O=C1c2ccccc2C(=O)N1CCSCc1ccc(C2OCCO2)o1 the melting point was 83 to 85 °C. COc1cc(C=CC(=O)Nc2cnc3c(C)cc(C)cc3c2-c2ccccc2Cl)cc(OC)c1OC showed a melting point of 198 to 200 °C. In the case of C[C@H]1Cn2c(=O)[nH]c3cc(N)cc(c32)CN1CC1CC1, the melting point is reported as 189 °C. Molecule COc1ccc(-c2c(C)[nH]c(=S)n2Nc2cccc(Cl)c2)cc1 has a melting point of 226 °C. Molecule CC(O)=C(C#N)C(=O)Nc1ccc(Br)cc1 has a melting point of 213 to 214 °C. O=C(NCCl)Oc1cccc(Cl)c1 showed a melting point of 90 °C. CCOC(=O)CCc1cccc(CNC(=O)C[C@H]2O[C@H](c3cccc(OC)c3OC)c3cc(Cl)ccc3N(CC(C)(C)CO)C2=O)c1 showed a melting point of 94 to 95 °C. O=[N+]([O-])c1nccnc1NCC(O)CO (stereo not given) gave a melting point of 100 to 102 °C. CCOC(=O)C1=CC(CF)(CF)Oc2ccc(I)cc21 gave a melting point of 89 to 90 °C. O=[N+]([O-])c1cc(F)ccc1OC1CCC(O)CC1 (stereo not given) showed a melting point of 151 °C. For COc1ccc(COc2cccnc2NC(=S)Nc2ccccc2)cc1, the melting point was 123 to 125 °C. Work on O=C(CCCc1cnoc1-c1ccccc1)Nc1ccc(-n2ccnc2)cc1 yielded a melting point of 132 to 133 °C. Molecule Cc1nc[nH]c1CSCCNC(=S)S has a melting point of 127 to 129 °C. Work on CCn1ncc2cc3c(nc21)CCc1ccccc1C3(O)CCCN(C)C (stereo not given) yielded a melting point of 100 to 102 °C. COc1cc2ncc(C#N)c(Nc3ccc(C)cc3O)c2cc1OC gave a melting point of over 250 °C. In the case of Cc1cccc(C(N)=O)c1NS(=O)(=O)c1nc2scc(C)n2n1, the melting point is reported as 217 to 218 °C. In the case of Nc1nc2[nH]c(CCCc3csc(C(=O)O)c3)cc2c(=O)[nH]1, the melting point is reported as 181 to 182 °C. With CCOC(=O)c1cn(C)c2nn(C)cc2c1=O the melting point was 235 to 240 °C. Molecule CCCCOC(=O)C(NC(=O)OCc1ccccc1)c1ccc(O)cc1 (stereo not given) has a melting point of 143 to 144 °C. For COc1ccc(C2(c3ccc(N(C)C)cc3)OC(=O)c3cc(N(C)C)ccc32)cc1 (stereo not given), the melting point was 156 to 161 °C. In the case of O=Cc1cccc(/C=C/c2nc3cc(F)ccc3s2)c1, the melting point is reported as 151 to 152 °C. Molecule O=C1N[C@H](Cc2ccc(C(F)(F)F)cc2)[C@@H](c2ccc(F)cc2)O1 (racemic) has a melting point of 83 to 84 °C. O=C(O)CC1CCC(CCNS(=O)(=O)c2ccc(Br)cc2)CC1 (stereo not given) showed a melting point of 124 to 126 °C. Molecule CCOC(=O)c1c(O)c2cscc2[nH]c1=O has a melting point of 193 °C. In the case of COCc1cnc2nc(N)nc(N)c2n1, the melting point is reported as 248 to 251 °C. For CCC1CC(=O)CC2CCC3C4CCC(OC(C)=O)C4(C)CCC3C12C (stereo not given), the melting point was 159 °C. Work on Cc1c(Br)c2c(c(C)c1NC(=O)CC(C)(C)C)C(c1ccc(C(C)C)cc1)CS2(=O)=O (stereo not given) yielded a melting point of 211 to 213 °C. With COc1c(C=Cc2ccc(C=CC3=C(C#N)C(=C(C#N)C#N)OC3(C)C(F)(F)F)s2)cc2c3c1CCCN3CCC2 (stereo not given) the melting point was 159 to 161 °C. CC(C)Oc1nc(CO)sc1C(=O)NCc1ccc(Cl)cc1Cl showed a melting point of 127 to 128 °C. With CCOC(CNC(=O)N(N=Cc1ccccc1)c1cc(Cl)c(Cc2ccc(Cl)cc2)c(Cl)c1)OCC the melting point was 138 to 139 °C. Molecule [N-]=[N+]=Nc1nc(C(F)(F)F)nc(-c2ccccc2)c1-c1ccccc1 has a melting point of 126 to 128 °C. O=C(c1ccc2c(c1)OCCO2)c1ccc2[nH]c(=O)nc(-c3cccc(Cl)c3)c2c1 showed a melting point of 255 °C. Molecule COc1cc(Nc2c(C#N)cnc3cc4cc(OC)c(OCCN5CCOCC5)cc4cc23)c(Cl)cc1F has a melting point of 204 to 214 °C. COc1cccc(CCc2c(CCNC(=O)CCCCC(=O)NCCc3ccc(N)cc3)ccc(OC)c2OC)c1 gave a melting point of 163 to 165 °C. Molecule CC(Oc1ccc([N+](=O)[O-])cc1)C(=O)O (stereo not given) has a melting point of 139 to 141 °C. Molecule COc1c(C(=O)C=Cc2ccncc2)cc(Cl)c(N)c1OC has a melting point of 220 to 223 °C. Work on CC(C)(C)c1ccc(CI)cc1[N+](=O)[O-] yielded a melting point of 98 to 99 °C. Work on O=CN(O)C(CS(=O)(=O)c1ccc(-c2ccc(OC(F)(F)F)cc2)cc1)c1ccccn1 (stereo not given) yielded a melting point of 116 to 118 °C. In the case of Cc1ccc(S(=O)(=O)OC2CCc3[nH]c4ccccc4c3C2)cc1 (stereo not given), the melting point is reported as 148 to 151 °C. CC1(C)CC(=O)C2=C(C1)NC1=C(C(=O)CC(C)(C)C1)C2c1cccc(Oc2ccccc2)c1 showed a melting point of 205 to 207 °C. CC(=O)OC1C(N2CCCCC2)CC2C3CCC4CC(O)C(N5CCOCC5)CC4(C)C3CCC21C (stereo not given) showed a melting point of 177 to 184 °C. COC(=O)C1=C(C)NC(C)=NC1c1ccccc1Cl (stereo not given) showed a melting point of 225 to 227 °C.
